Test results published in patent US10294202B2, “Pyrrolidinones as herbicides” (FMC Corporation, priority 2013, dated 2019).

Experiments:
crabgrass, large = test: Test C pre-/postemergence herbicide test; assay type: in vivo, Digitaria sanguinalis
Summary of the method: (§1)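 Herbicidal effect was judged by eye 13 to 15 days after treatment in the greenhouse, using a 0–100 scale against controls. Chemicals in a non-phytotoxic solvent with surfactant were sprayed onto planted loam/sand soil or onto plants 2 to 18 cm tall in a peat-based growing medium.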

oilseed rape = test: Test C pre-/postemergence herbicide test; assay type: in vivo, Brassica napus
Summary of the method: as §1

ducksalad = test: Test B flooded paddy test; assay type: in vivo, Heteranthera limosa; conditions: Flood, scale of 0 to 100 where 0 is no effect and 100 is complete control
Summary of the method: (§2)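 Scored visually 0–100 (0 no effect, 100 complete control) versus controls after 13 to 15 greenhouse days. Treatment: compound added to paddy water kept 3 cm above soil, on 2-leaf-stage plants.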

velvetleaf = test: Test C pre-/postemergence herbicide test; assay type: in vivo, Abutilon theophrasti
Summary of the method: as §1

ryegrass, Italian = test: Test C pre-/postemergence herbicide test; assay type: in vivo, Lolium multiflorum
Summary of the method: as §1

waterhemp = test: Test C pre-/postemergence herbicide test; assay type: in vivo, Amaranthus rudis
Summary of the method: as §1

rice = test: Test B flooded paddy test; assay type: in vivo, Oryza sativa; conditions: Flood, scale of 0 to 100 where 0 is no effect and 100 is complete control
Summary of the method: as §2

soybean = test: Test C pre-/postemergence herbicide test; assay type: in vivo, Glycine max
Summary of the method: as §1

blackgrass = test: Test C pre-/postemergence herbicide test; assay type: in vivo, Alopecurus myosuroides
Summary of the method: as §1

barnyardgrass = test: Test B flooded paddy test; assay type: in vivo, Echinochloa crus-galli; conditions: Flood, scale of 0 to 100 where 0 is no effect and 100 is complete control
Summary of the method: as §2

sedge, umbrella = test: Test B flooded paddy test; assay type: in vivo, Cyperus difformis; conditions: Flood, scale of 0 to 100 where 0 is no effect and 100 is complete control
Summary of the method: as §2

corn = test: Test A pre-/postemergence herbicide test; assay type: in vivo, Zea mays
Summary of the method: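 Both application timings used compounds in a non-phytotoxic solvent plus surfactant. Pre-emergence: soil sprayed directly after seeding into loam/sand. Post-emergence: foliage of 2–10 cm seedlings (1–2 leaves) sprayed. Injury rated ~10 days later, 0–100.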

[1] = Postemergence, 31 g ai/ha, scale 0 to 100 (0 no effect, 100 complete control)
[2] = Postemergence, 62 g ai/ha, scale 0 (no effect) to 100 (complete control)
[3] = Postemergence, 125 g ai/ha, scale 0 to 100 (0 no effect, 100 complete control)
[4] = Postemergence, 250 g ai/ha, scale 0 to 100 (0 no effect, 100 complete control)
[5] = Preemergence, 31 g ai/ha, scale 0 to 100, 0 is no effect and 100 is complete control
[6] = Preemergence, 62 g ai/ha, scale 0 to 100 (0 no effect, 100 complete control)
[7] = Preemergence, 125 g ai/ha, scale 0 to 100
[8] = Postemergence, 500 g ai/ha, 0 to 100 scale (0 no effect, 100 complete control)
[9] = Preemergence, 125 g ai/ha, scale 0 to 100 (0 no effect, 100 complete control)

Structure (SMILES): O=C1NCC(c2cccc(C(F)(F)F)c2)C1C(=O)Nc1cccc(Cl)c1F (stereo not shown) [Compound 316]
- Plant response rating, Crabgrass, Large (crabgrass, large; [1]): 0
- Plant response rating, Crabgrass, Large (crabgrass, large; [2]): 50
- Plant response rating, Crabgrass, Large (crabgrass, large; [3]): 60
- Plant response rating, Crabgrass, Large (crabgrass, large; [4]): 70
- Crabgrass, Large plant response rating (crabgrass, large; [5]): 90
- Crabgrass, Large plant response rating (crabgrass, large; [6]): 95
- Plant response rating, Crabgrass, Large (crabgrass, large; [7]): 95
- Plant response rating (scale of 0 to 100), Crabgrass, Large (crabgrass, large; Preemergence, 250 g ai/ha): 98
- Plant response rating, Oilseed Rape (oilseed rape; [1]): 0
- Plant response rating, Oilseed Rape (oilseed rape; [2]): 0
- Plant response rating, Oilseed Rape (oilseed rape; [3]): 0
- Plant response rating, Oilseed Rape (oilseed rape; [4]): 0
- Oilseed Rape plant response rating (oilseed rape; [5]): 0
- Oilseed Rape plant response rating (oilseed rape; [6]): 0
- Plant response rating, Oilseed Rape (oilseed rape; [7]): 20
- Plant response rating (scale of 0 to 100), Oilseed Rape (oilseed rape; Preemergence, 250 g ai/ha): 60
- Plant response rating, Ducksalad (ducksalad; 500 g ai/ha): 100
- Plant response rating, Velvetleaf (velvetleaf; [1]): 0
- Plant response rating, Velvetleaf (velvetleaf; [2]): 0
- Plant response rating, Velvetleaf (velvetleaf; [3]): 45
- Plant response rating, Velvetleaf (velvetleaf; [4]): 35
- Velvetleaf plant response rating (velvetleaf; [6]): 10
- Plant response rating, Velvetleaf (velvetleaf; [7]): 10
- Plant response rating, Ryegrass, Italian (ryegrass, Italian; [1]): 0
- Plant response rating, Ryegrass, Italian (ryegrass, Italian; [2]): 0
- Plant response rating, Ryegrass, Italian (ryegrass, Italian; [3]): 0
- Plant response rating, Ryegrass, Italian (ryegrass, Italian; [4]): 5
- Ryegrass, Italian plant response rating (ryegrass, Italian; [6]): 0
- Plant response rating, Ryegrass, Italian (ryegrass, Italian; [7]): 10
- Plant response rating, Waterhemp (waterhemp; [1]): 10
- Plant response rating, Waterhemp (waterhemp; [2]): 10
- Plant response rating, Waterhemp (waterhemp; [3]): 10
- Plant response rating, Waterhemp (waterhemp; [4]): 55
- Waterhemp plant response rating (waterhemp; [6]): 35
- Plant response rating, Waterhemp (waterhemp; [7]): 35
- Plant response rating, Rice (rice; 500 g ai/ha): 0
- Plant response rating, Soybean (soybean; [1]): 0
- Plant response rating, Soybean (soybean; [2]): 0
- Plant response rating, Soybean (soybean; [3]): 0
- Plant response rating, Soybean (soybean; [4]): 0
- Soybean plant response rating (soybean; [6]): 0
- Plant response rating, Soybean (soybean; [7]): 0
- Plant response rating, Blackgrass (blackgrass; [1]): 0
- Plant response rating, Blackgrass (blackgrass; [2]): 0
- Plant response rating, Blackgrass (blackgrass; [3]): 0
- Plant response rating, Blackgrass (blackgrass; [4]): 0
- Blackgrass plant response rating (blackgrass; [5]): 0
- Blackgrass plant response rating (blackgrass; [6]): 0
- Plant response rating, Blackgrass (blackgrass; [7]): 30
- Plant response rating (scale of 0 to 100), Blackgrass (blackgrass; Preemergence, 250 g ai/ha): 60
- Plant response rating, Barnyardgrass (barnyardgrass; 500 g ai/ha): 60
- Plant response rating, Sedge, Umbrella (sedge, umbrella; 500 g ai/ha): 0
- Plant response rating, Corn (corn; Postemergence, 125 g ai/ha, visual rating on 0 to 100 scale (0 no effect, 100 complete control), approx. 10 days): 60
- Plant response rating, Corn (corn; [8]): 80

Structure (SMILES): O=C1NCC(c2cccc(C(F)(F)F)c2)C1C(=O)Nc1cccc(F)c1F (stereo not shown) [Compound 241]
- Crabgrass, Large plant response rating (crabgrass, large; [5]): 95
- Crabgrass, Large plant response rating (crabgrass, large; [6]): 95
- Plant response rating, Crabgrass, Large (crabgrass, large; [9]): 98
- Plant response rating (scale of 0 to 100), Crabgrass, Large (crabgrass, large; Preemergence, 250 g ai/ha): 100
- Oilseed Rape plant response rating (oilseed rape; [5]): 0
- Oilseed Rape plant response rating (oilseed rape; [6]): 0
- Plant response rating, Oilseed Rape (oilseed rape; [9]): 70
- Plant response rating (scale of 0 to 100), Oilseed Rape (oilseed rape; Preemergence, 250 g ai/ha): 85
- Plant response rating, Ducksalad (ducksalad; 250 g ai/ha): 100
- Plant response rating, Ducksalad (ducksalad; 1000 g ai/ha): 100
- Velvetleaf plant response rating (velvetleaf; [5]): 0
- Velvetleaf plant response rating (velvetleaf; [6]): 0
- Plant response rating, Velvetleaf (velvetleaf; [9]): 5
- Plant response rating (scale of 0 to 100), Velvetleaf (velvetleaf; Preemergence, 250 g ai/ha): 40
- Ryegrass, Italian plant response rating (ryegrass, Italian; [5]): 20
- Ryegrass, Italian plant response rating (ryegrass, Italian; [6]): 20
- Plant response rating, Ryegrass, Italian (ryegrass, Italian; [9]): 30
- Plant response rating (scale of 0 to 100), Ryegrass, Italian (ryegrass, Italian; Preemergence, 250 g ai/ha): 55
- Waterhemp plant response rating (waterhemp; [5]): 25
- Waterhemp plant response rating (waterhemp; [6]): 40
- Plant response rating, Waterhemp (waterhemp; [9]): 45
- Plant response rating (scale of 0 to 100), Waterhemp (waterhemp; Preemergence, 250 g ai/ha): 60
- Plant response rating, Rice (rice; 250 g ai/ha): 0
- Plant response rating, Rice (rice; 1000 g ai/ha): 10
- Soybean plant response rating (soybean; [5]): 0
- Soybean plant response rating (soybean; [6]): 0
- Plant response rating, Soybean (soybean; [9]): 0
- Plant response rating (scale of 0 to 100), Soybean (soybean; Preemergence, 250 g ai/ha): 0
- Blackgrass plant response rating (blackgrass; [5]): 50
- Plant response rating, Blackgrass (blackgrass; Preemergence, 62 g ai/ha, scale 0 to 100): 70
- Plant response rating, Blackgrass (blackgrass; [9]): 80
- Plant response rating (scale of 0 to 100), Blackgrass (blackgrass; Preemergence, 250 g ai/ha): 85
- Plant response rating, Barnyardgrass (barnyardgrass; 250 g ai/ha): 55
- Plant response rating, Barnyardgrass (barnyardgrass; 1000 g ai/ha): 75
- Plant response rating, Sedge, Umbrella (sedge, umbrella; 250 g ai/ha): 0
- Plant response rating, Sedge, Umbrella (sedge, umbrella; 1000 g ai/ha): 20
- Plant response rating, Corn (corn; Postemergence, 125 g ai/ha, 0 to 100 scale, 0 is no effect, 100 is complete control): 50
- Plant response rating, Corn (corn; [8]): 80
- Plant response rating, Corn (corn; Preemergence, 125 g ai/ha, 0 to 100 scale where 0 is no effect and 100 is complete control): 20
- Plant response rating, Corn (corn; preemergence, 500 g ai/ha, 0 to 100 scale, 0 is no effect and 100 is complete control): 50
